According to patent US10005767B2, “Compositions and methods for inhibition of the JAK pathway” (Rigel Pharmaceuticals, Inc., priority 2009, dated 2018):
Structures can show the parent of a compound that is named as a salt.

What follows are compounds tested on human primary T-cells, IL-2 stimulated proliferation (JAK-1 and JAK-3 dependent; reported as JAK3 activity) (assay: Human primary T-cell proliferation stimulated by IL-2 (Example 3)). Settings: Homo sapiens, T-cell, tested under conditions described in Example 3 (IL-2 stimulated human primary T-cell proliferation); read-out: ability to inhibit JAK3 activity, IC50 range (Table V).
Type: cell-based
In short: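 Peripheral-blood human T-cells pre-activated via TCR/CD28, IL-2-starved overnight, then cultured 72 h at 37 °C with compound in Yssel's medium containing IL-2 (80 U/mL in cell suspension). Proliferation read as viable-cell ATP by CellTiter-Glo luminescence; reduction versus control taken as JAK pathway inhibition.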
For COc1ccc(F)c(Nc2ncc(C)c(Nc3ccc4oc(=O)[nH]c4c3)n2)c1 [Compound I-533, 5-(2-(2-fluoro-5-methoxyphenylamino)-5-methylpyrimidin-4-ylamino)benzo[d]oxazol-2(3H)-one], the IC50 was < 500 nM. Cc1cnc(Nc2ccc3c(c2)CN(C)C3)nc1Nc1ccc2oc(=O)[nH]c2c1 [III-4, N4-(benzo[d]oxazol-2(3H)-on-5-yl)-N2-(2-methylisoindolin-5-yl)-5-methylpyrimidine-2,4-diamine] was tested, and the IC50 was < 500 nM. With Cc1cnc(Nc2cnc(N3C[C@@H]4C[C@H]3CN4C)c(C#N)c2)nc1Nc1ccc2oc(=O)[nH]c2c1 [II-115, N4-(benzo[d]oxazolin-2(3H)-one-5-yl)-N2-[3-cyano-2-((1S,4S)-5-methyl-2,5-diazabicyclo[2.2.1]heptan-2-yl)pyridine-5-yl]-5-methyl-2,4-pyrimidinediamine] the IC50 was < 500 nM. Cc1cnc(Nc2cc(OCC3CC3)cc(C(F)(F)F)c2)nc1Nc1ccc2oc(=O)[nH]c2c1 [Compound I-225, 5-(2-(3-(cyclopropylmethoxy)-5-(trifluoromethyl)phenylamino)-5-methylpyrimidin-4-ylamino)benzo[d]oxazol-2(3H)-one] showed an IC50 of 500 to 5000 nM. Work on Cc1cc(Nc2ncc(C)c(Nc3ccc4oc(=O)[nH]c4c3)n2)ccc1N1CC2(C)CN(C)CC(C)(C1)C2 [Compound I-5, N4-(benzo[d]oxazol-2(3H)-on-5-yl)-N2-(3-methyl-4-(1,5,7-trimethyl-3,7-diazabicyclo[3.3.1]nonan-3-yl)phenyl)-5-methylpyrimidine-2,4-diamine] yielded an IC50 of 500 to 5000 nM. In the case of [2H]C([2H])([2H])Oc1ccc(Nc2ncc(C)c(Nc3ccc4oc(=O)[nH]c4c3)n2)cc1C [Compound I-264, 5-(2-(3-methyl-4-trideuteromethoxyphenylamino)-5-methylpyrimidin-4-ylamino)benzo[d]oxazol-2(3H)-one], the IC50 is reported as < 500 nM. CCC(=O)n1c(=O)oc2ccc(Nc3nc(Nc4ccc(C(N)=O)cc4)ncc3C)cc21 [Compound I-145, 4-[5-Methyl-4-(2-oxo-3-propionyl-2,3-dihydro-benzooxazol-5-ylamino)-pyrimidin-2-ylamino]-benzamide] was tested, and the IC50 was < 500 nM. In the case of CCN1CCN(c2ccc(Nc3ncc(C)c(Nc4ccc5oc(=O)[nH]c5c4)n3)cc2C(F)(F)F)CC1 [Compound I-110, N4-(benzoxazolin-2-on-5-yl)-N2-[3-trifluoromethyl-4-(4-ethylpiperazin-1-yl)phenyl]-5-methylpyrimidine-2,4-diamine], the IC50 is reported as < 500 nM. With COc1cc(Nc2ncc(C)c(Nc3ccc4oc(=O)[nH]c4c3)n2)cc(C(C)NC2CC2)c1 (stereo not drawn) [Compound I-233, 5-(2-(3-(1-(cyclopropylamino)ethyl)-5-methoxyphenylamino)-5-methylpyrimidin-4-ylamino)benzo[d]oxazol-2(3H)-one] the IC50 was < 500 nM. With Cc1cnc(Nc2ccc(NC3CC4CCC(C3)N4C)cc2)nc1Nc1ccc2oc(=O)[nH]c2c1 (stereo not drawn) [Compound I-121, N4-(benzo[d]oxazol-2(3H)-on-5-yl)-N2-(4-(8-methyl-8-azabicyclo[3.2.1]octan-3-ylamino)phenyl)-5-methylpyrimidine-2,4-diamine] the IC50 was 500 to 5000 nM. Cc1cnc(Nc2ccc3c(c2)CN(CC2CCCC2)C3)nc1Nc1ccc2oc(=O)[nH]c2c1 [III-10, N4-(benzo[d]oxazol-2(3H)-on-5-yl)-N2-(2-cyclopentylmethylisoindolin-5-yl)-5-methylpyrimidine-2,4-diamine] was tested, and the IC50 was < 500 nM. With COC(=O)c1ccc(Nc2ncc(C)c(Nc3ccc4oc(=O)[nH]c4c3)n2)cc1C [Compound I-159, 2-Methyl-4-[5-methyl-4-(2-oxo-2,3-dihydro-benzooxazol-5-ylamino)-pyrimidin-2-ylamino]-benzoic acid methyl ester] the IC50 was < 500 nM. For COc1cc(Nc2ncc(C)c(Nc3cc(C)c4oc(=O)[nH]c4c3)n2)cc(C)c1OC [Compound I-453, 5-(2-(3,4-dimethoxy-5-methylphenylamino)-5-methylpyrimidin-4-ylamino)-7-methylbenzo[d]oxazol-2(3H)-one], the IC50 was < 500 nM.

Same assay, conditions: tested under conditions described in Example 3 (IL-2 stimulated human primary T-cell proliferation); read-out: ability to inhibit JAK3 activity, IC50 range (Table V)
With Cc1cnc(Nc2cc(F)cc(C(F)(F)F)c2)nc1Nc1ccc2oc(=O)[nH]c2c1 [Compound I-162, 5-[2-(3-Fluoro-5-trifluoromethyl-phenylamino)-5-methyl-pyrimidin-4-ylamino]-3H-benzooxazol-2-one triflouroacetate salt] the IC50 was > 10000 nM. With Cn1c(=O)oc2cc(Nc3nc(Nc4ccc(S(N)(=O)=O)cc4)ncc3F)ccc21 [Compound I-58] the IC50 was > 10000 nM. For Cc1cnc(Nc2ccc(NC3CCNCC3)nc2)nc1Nc1ccc2oc(=O)[nH]c2c1 [II-36, N4-(benzo[d]oxazol-2(3H)-on-5-yl)-N2-[2-(1H-piperidin-4-yl)aminopyridin-5-yl]-5-methylpyrimidine-2,4-diamine], the IC50 was < 500 nM. O=c1[nH]c2ccc(Nc3nc(Nc4cccc(S(=O)(=O)N5CCOCC5)c4)ncc3F)cc2[nH]1 [Compound I-32, N4-(benzimidazolin-2-on-5-yl)-N2-(3-(morpholinosulfonyl)phenyl)-5-fluoropyrimidine-2,4-diamine] showed an IC50 of 500 to 5000 nM. For COc1c(F)cc(Nc2ncc(C)c(Nc3ccc4oc(=O)[nH]c4c3)n2)cc1F [Compound I-381, N2-(3,5-difluoro-4-methoxy)phenyl-5-methyl-N4-(2-oxo-2,3-dihydro-1,3-benzoxazol-5-yl)-2,4-pyrimidinediamine], the IC50 was < 500 nM. Cc1cnc(Nc2ccc(-n3cccc3)c(C#N)c2)nc1Nc1ccc2oc(=O)[nH]c2c1 [Compound I-295, N2-[3-cyano-4-(1H-pyrrol-1-yl)]phenyl-5-methyl-N4-(2-oxo-2,3-dihydro-1,3-benzoxazol-5-yl)-2,4-pyrimidinediamine] was tested, and the IC50 was < 500 nM. With Cn1c(=O)oc2cc(Nc3nc(Nc4ccc(S(C)(=O)=O)cc4)ncc3F)ccc21 [Compound I-60] the IC50 was > 10000 nM. For Cc1cnc(Nc2cccc(NS(C)(=O)=O)c2)nc1Nc1ccc2[nH]c(=O)oc2c1 [Compound I-102, N2-((3-methylsulfonylamino)phenyl)-N4-(2-oxo-2,3-dihydrobenzo[d]oxazol-6-yl)-5-methylpyrimidine-2,4-diamine], the IC50 was < 500 nM.
